Data reported in the supplement of paper PMC10307832.

Experiments:
Assay in all cases: relative viability (nuclei count vs DMSO), 5 days (fraction); higher = more cells survive
[1] = compound: CC1=CN=C(N=C1C2=CNC(=C2)C(=O)N[C@H](CO)C3=CC(=CC=C3)Cl)NC4=C(C=C(C=C4)F)Cl [VX-11e] + CCNC(=O)c1noc(-c2cc(C(C)C)c(O)cc2O)c1-c1ccc(CN2CCOCC2)cc1 [Luminespib] (partner 0.01 µM)
Method in brief: (§1)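 A single step with final 0.05% Triton X-100, 1% formaldehyde and 1 ug/ml Hoechst fixed the cells and stained nuclei 5 days after treatment. Lung cancer cell lines in 1536-well plates had been treated by pin tool the day after seeding with one drug alone or a fixed anchor-drug dose plus five library-drug doses (not always all listed) in √10 steps, and nuclei were counted on 4× images. Relative viability is the ratio of nuclei in treated wells to nuclei in vehicle wells, taken as the median of duplicate plates.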

[2] = compound: CC1=CN=C(N=C1C2=CNC(=C2)C(=O)N[C@H](CO)C3=CC(=CC=C3)Cl)NC4=C(C=C(C=C4)F)Cl [VX-11e] + COc1cc2c(Oc3ccc(NC(=O)C4(C(=O)Nc5ccc(F)cc5)CC4)cc3F)ccnc2cc1OCCCN1CCOCC1 [Foretinib] (partner 0.25 µM)
Method in brief: as §1

[3] = compound: CC1=CN=C(N=C1C2=CNC(=C2)C(=O)N[C@H](CO)C3=CC(=CC=C3)Cl)NC4=C(C=C(C=C4)F)Cl [VX-11e] + Cc1nc(Nc2ncc(C(=O)Nc3c(C)cccc3Cl)s2)cc(N2CCN(CCO)CC2)n1 [Dasatinib] (partner 0.075 µM)
Method in brief: as §1

[4] = compound: CC1=CN=C(N=C1C2=CNC(=C2)C(=O)N[C@H](CO)C3=CC(=CC=C3)Cl)NC4=C(C=C(C=C4)F)Cl [VX-11e] + Nc1ncn([C@H]2C[C@H](O)[C@@H](CO)O2)c(=O)n1 [Decitabine] (partner 2 µM)
Method in brief: as §1

In the case of NCI-H1944, the relative viability ([1]; first compound 0.04 µM) is reported as 0.711, the relative viability ([1]; first compound 0.1265 µM) is reported as 0.708 and the relative viability ([1]; first compound 1.265 µM) is reported as 0.571. The relative viability ([1]; first compound 4 µM) was 0.422, the relative viability ([2]; first compound 0.04 µM) was 0.896 and the relative viability ([2]; first compound 0.1265 µM) was 0.851. It also gave a relative viability ([2]; first compound 1.265 µM) of 0.806, a relative viability ([2]; first compound 4 µM) of 0.505 and a relative viability ([3]; first compound 0.04 µM) of 0.203. The relative viability ([3]; first compound 0.1265 µM) was 0.207, the relative viability ([3]; first compound 1.265 µM) was 0.2 and the relative viability ([3]; first compound 4 µM) was 0.154. It also gave a relative viability ([4]; first compound 0.04 µM) of 0.461, a relative viability ([4]; first compound 0.1265 µM) of 0.509 and a relative viability ([4]; first compound 0.4 µM) of 0.412. The relative viability ([4]; first compound 1.265 µM) was 0.41 and the relative viability ([4]; first compound 4 µM) was 0.374.

With NCI-H1975 the relative viability ([1]; first compound 0.04 µM) was 0.232, the relative viability ([1]; first compound 0.1265 µM) was 0.199 and the relative viability ([1]; first compound 0.4 µM) was 0.156. It also gave a relative viability ([1]; first compound 1.265 µM) of 0.283, a relative viability ([1]; first compound 4 µM) of 0.186 and a relative viability ([2]; first compound 0.04 µM) of 1.02. It also gave a relative viability ([2]; first compound 0.1265 µM) of 0.949, a relative viability ([2]; first compound 0.4 µM) of 1.01 and a relative viability ([2]; first compound 1.265 µM) of 1.08. It also gave a relative viability ([2]; first compound 4 µM) of 0.46, a relative viability ([3]; first compound 0.04 µM) of 0.373 and a relative viability ([3]; first compound 0.1265 µM) of 0.29. For the same cell line, the relative viability ([3]; first compound 0.4 µM) was 0.195, the relative viability ([3]; first compound 1.265 µM) was 0.254 and the relative viability ([3]; first compound 4 µM) was 0.171. For the same cell line, the relative viability ([4]; first compound 0.04 µM) was 0.42, the relative viability ([4]; first compound 0.1265 µM) was 0.388 and the relative viability ([4]; first compound 0.4 µM) was 0.336. The relative viability ([4]; first compound 1.265 µM) was 0.364 and the relative viability ([4]; first compound 4 µM) was 0.226.

In the case of NCI-H1993, the relative viability ([1]; first compound 0.04 µM) is reported as 1.12, the relative viability ([1]; first compound 0.1265 µM) is reported as 0.918 and the relative viability ([1]; first compound 0.4 µM) is reported as 0.484. The relative viability ([1]; first compound 1.265 µM) was 1.02, the relative viability ([1]; first compound 4 µM) was 0.663 and the relative viability ([2]; first compound 0.04 µM) was 0.786. It also gave a relative viability ([2]; first compound 0.1265 µM) of 0.818, a relative viability ([2]; first compound 0.4 µM) of 0.857 and a relative viability ([2]; first compound 1.265 µM) of 0.734. For the same cell line, the relative viability ([2]; first compound 4 µM) was 0.667, the relative viability ([3]; first compound 0.04 µM) was 0.442 and the relative viability ([3]; first compound 0.1265 µM) was 0.54. It also gave a relative viability ([3]; first compound 0.4 µM) of 0.523, a relative viability ([3]; first compound 1.265 µM) of 1.46 and a relative viability ([3]; first compound 4 µM) of 0.504. For the same cell line, the relative viability ([4]; first compound 0.1265 µM) was 0.644, the relative viability ([4]; first compound 0.4 µM) was 0.674 and the relative viability ([4]; first compound 1.265 µM) was 0.659. For the same cell line, the relative viability ([4]; first compound 4 µM) was 0.509.

With NCI-H2009 the relative viability ([1]; first compound 0.04 µM) was 1.07, the relative viability ([1]; first compound 0.1265 µM) was 1.03 and the relative viability ([1]; first compound 0.4 µM) was 1.03. It also gave a relative viability ([1]; first compound 1.265 µM) of 1.08, a relative viability ([1]; first compound 4 µM) of 0.349 and a relative viability ([2]; first compound 0.04 µM) of 1.33. It also gave a relative viability ([2]; first compound 0.1265 µM) of 1.18, a relative viability ([2]; first compound 0.4 µM) of 1.06 and a relative viability ([2]; first compound 1.265 µM) of 0.857. For the same cell line, the relative viability ([2]; first compound 4 µM) was 0.509, the relative viability ([3]; first compound 0.04 µM) was 0.307 and the relative viability ([3]; first compound 0.1265 µM) was 0.286. For the same cell line, the relative viability ([3]; first compound 0.4 µM) was 0.242, the relative viability ([3]; first compound 1.265 µM) was 0.169 and the relative viability ([3]; first compound 4 µM) was 0.122. It also gave a relative viability ([4]; first compound 0.04 µM) of 0.377, a relative viability ([4]; first compound 0.1265 µM) of 0.394 and a relative viability ([4]; first compound 0.4 µM) of 0.369. It also gave a relative viability ([4]; first compound 1.265 µM) of 0.293 and a relative viability ([4]; first compound 4 µM) of 0.244.

With NCI-H2023 the relative viability ([1]; first compound 0.04 µM) was 0.683, the relative viability ([1]; first compound 0.1265 µM) was 0.791 and the relative viability ([1]; first compound 0.4 µM) was 0.701. The relative viability ([1]; first compound 1.265 µM) was 0.6, the relative viability ([1]; first compound 4 µM) was 0.361 and the relative viability ([2]; first compound 0.04 µM) was 0.811. For the same cell line, the relative viability ([2]; first compound 0.1265 µM) was 0.771, the relative viability ([2]; first compound 1.265 µM) was 0.513 and the relative viability ([2]; first compound 4 µM) was 0.42. It also gave a relative viability ([3]; first compound 0.04 µM) of 0.647, a relative viability ([3]; first compound 0.1265 µM) of 0.508 and a relative viability ([3]; first compound 0.4 µM) of 0.502. For the same cell line, the relative viability ([3]; first compound 1.265 µM) was 0.439, the relative viability ([3]; first compound 4 µM) was 0.234 and the relative viability ([4]; first compound 0.04 µM) was 0.207. For the same cell line, the relative viability ([4]; first compound 0.1265 µM) was 0.222, the relative viability ([4]; first compound 0.4 µM) was 0.222 and the relative viability ([4]; first compound 1.265 µM) was 0.256. For the same cell line, the relative viability ([4]; first compound 4 µM) was 0.228.

With NCI-H2085 the relative viability ([1]; first compound 0.04 µM) was 0.378, the relative viability ([1]; first compound 0.1265 µM) was 0.433 and the relative viability ([1]; first compound 0.4 µM) was 0.396. For the same cell line, the relative viability ([1]; first compound 1.265 µM) was 0.323, the relative viability ([1]; first compound 4 µM) was 0.276 and the relative viability ([2]; first compound 0.04 µM) was 0.973. It also gave a relative viability ([2]; first compound 0.1265 µM) of 0.951, a relative viability ([2]; first compound 0.4 µM) of 0.725 and a relative viability ([2]; first compound 1.265 µM) of 0.835. For the same cell line, the relative viability ([2]; first compound 4 µM) was 0.679, the relative viability ([3]; first compound 0.04 µM) was 0.296 and the relative viability ([3]; first compound 0.1265 µM) was 0.241. It also gave a relative viability ([3]; first compound 0.4 µM) of 0.217, a relative viability ([3]; first compound 1.265 µM) of 0.188 and a relative viability ([3]; first compound 4 µM) of 0.193. It also gave a relative viability ([4]; first compound 0.04 µM) of 0.658, a relative viability ([4]; first compound 0.1265 µM) of 0.542 and a relative viability ([4]; first compound 0.4 µM) of 0.525. For the same cell line, the relative viability ([4]; first compound 1.265 µM) was 0.539 and the relative viability ([4]; first compound 4 µM) was 0.553.

Cell Line NCI-H2087 has a relative viability ([1]; first compound 0.04 µM) of 0.188, a relative viability ([1]; first compound 0.1265 µM) of 0.188 and a relative viability ([1]; first compound 1.265 µM) of 0.154. The relative viability ([1]; first compound 4 µM) was 0.152, the relative viability ([2]; first compound 0.04 µM) was 1.14 and the relative viability ([2]; first compound 0.1265 µM) was 1.06. It also gave a relative viability ([2]; first compound 1.265 µM) of 0.81, a relative viability ([2]; first compound 4 µM) of 0.454 and a relative viability ([3]; first compound 0.04 µM) of 0.943. The relative viability ([3]; first compound 0.1265 µM) was 0.73, the relative viability ([3]; first compound 1.265 µM) was 0.301 and the relative viability ([3]; first compound 4 µM) was 0.202. It also gave a relative viability ([4]; first compound 0.04 µM) of 0.318, a relative viability ([4]; first compound 0.1265 µM) of 0.295 and a relative viability ([4]; first compound 1.265 µM) of 0.182. It also gave a relative viability ([4]; first compound 4 µM) of 0.158.

In the case of NCI-H2126, the relative viability ([1]; first compound 0.04 µM) is reported as 0.824, the relative viability ([1]; first compound 0.1265 µM) is reported as 0.877 and the relative viability ([1]; first compound 1.265 µM) is reported as 0.964. For the same cell line, the relative viability ([1]; first compound 4 µM) was 0.737, the relative viability ([2]; first compound 0.04 µM) was 1.21 and the relative viability ([2]; first compound 0.1265 µM) was 1.22. For the same cell line, the relative viability ([2]; first compound 0.4 µM) was 1.01, the relative viability ([2]; first compound 1.265 µM) was 1.1 and the relative viability ([2]; first compound 4 µM) was 0.903. It also gave a relative viability ([3]; first compound 0.04 µM) of 0.52, a relative viability ([3]; first compound 0.1265 µM) of 0.635 and a relative viability ([3]; first compound 1.265 µM) of 0.597. For the same cell line, the relative viability ([3]; first compound 4 µM) was 0.401, the relative viability ([4]; first compound 0.04 µM) was 0.561 and the relative viability ([4]; first compound 0.1265 µM) was 0.608. The relative viability ([4]; first compound 0.4 µM) was 0.558, the relative viability ([4]; first compound 1.265 µM) was 0.614 and the relative viability ([4]; first compound 4 µM) was 0.573.

NCI-H2170 showed a relative viability ([1]; first compound 0.04 µM) of 0.878, a relative viability ([1]; first compound 0.1265 µM) of 0.639 and a relative viability ([1]; first compound 0.4 µM) of 0.566. The relative viability ([1]; first compound 1.265 µM) was 0.802, the relative viability ([1]; first compound 4 µM) was 0.436 and the relative viability ([2]; first compound 0.04 µM) was 0.995. It also gave a relative viability ([2]; first compound 0.1265 µM) of 1.13, a relative viability ([2]; first compound 0.4 µM) of 0.906 and a relative viability ([2]; first compound 1.265 µM) of 0.953. It also gave a relative viability ([2]; first compound 4 µM) of 0.812, a relative viability ([3]; first compound 0.04 µM) of 0.339 and a relative viability ([3]; first compound 0.1265 µM) of 0.664. For the same cell line, the relative viability ([3]; first compound 0.4 µM) was 0.461, the relative viability ([3]; first compound 1.265 µM) was 0.341 and the relative viability ([3]; first compound 4 µM) was 0.445. For the same cell line, the relative viability ([4]; first compound 0.04 µM) was 0.477, the relative viability ([4]; first compound 0.1265 µM) was 0.442 and the relative viability ([4]; first compound 0.4 µM) was 0.516. The relative viability ([4]; first compound 1.265 µM) was 0.541 and the relative viability ([4]; first compound 4 µM) was 0.547.
